The record followed here is US6667322B2, “Antidepressant chroman and chromene derivatives of 3-(1,2,3,6-tetrahydro-4-pyridinyl)-1H-indole” (Wyeth, priority 2001, dated 2003).

Data set [1] addresses T1, cloned human 5-HT1A receptors (Homo sapiens, UniProt P08908).
T1 construct: expressed in transfected cells
T1 sequence (P08908 1-422): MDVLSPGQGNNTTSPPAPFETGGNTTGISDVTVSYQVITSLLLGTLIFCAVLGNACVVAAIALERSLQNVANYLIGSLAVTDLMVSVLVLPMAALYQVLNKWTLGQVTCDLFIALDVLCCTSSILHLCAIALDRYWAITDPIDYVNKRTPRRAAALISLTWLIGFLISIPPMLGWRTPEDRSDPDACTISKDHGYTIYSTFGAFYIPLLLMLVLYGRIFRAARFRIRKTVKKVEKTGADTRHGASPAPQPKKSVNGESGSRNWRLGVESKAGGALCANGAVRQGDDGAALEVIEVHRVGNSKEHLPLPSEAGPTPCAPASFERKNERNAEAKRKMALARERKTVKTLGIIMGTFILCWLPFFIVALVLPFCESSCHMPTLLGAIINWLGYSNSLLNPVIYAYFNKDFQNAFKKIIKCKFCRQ
The experiment in a line: 35S-GTPγS binding assay, agonist activity at 5-HT1A receptors. Format: biochemical. To be noted: for EC50: 35S-GTPγS binding to membranes containing cloned human 5-HT1A receptors, read-out: 5-HT1A Function EC50; for Emax: read-out: 5-HT1A Function (Emax). How it is done: Agonist activity at 5-HT1A receptors was established by using a ^35S-GTPγbinding assay similar to that used by Lazareno and Birdsall (Br. J. Pharmacol. 109: 1120, 1993), in which the test compound's ability to affect the binding of ^35S-GTPγS to membranes containing cloned human 5-HT1A receptors was determined. Agonists produce an increase in binding whereas antagonists produce no increase but rather reverse the effects of the standard agonist 8-OHDPAT. The test compound's maximum stimulatory effect is represented as the Emax, while its potency is defined by the EC50.

For a further data set, the target named is T2, human 5-HT1A receptors (Homo sapiens, UniProt P08908).
T2 construct: expressed in transfected cells; host or cells: CHO cells
T2 sequence (P08908 1-422): T1 sequence (P08908 1-422)
The experiment in a line: [3H] 8-OHDPAT displacement from 5-HT1A receptor in transfected CHO cells. The format is binding. From the text: High affinity for the serotonin 5-HT1A receptor was established by testing the claimed compound's ability to displace [^3H] 8-OHDPAT (dipropylamino-tetralin) from the 5-HT1A serotonin receptor following a modification of the procedure of Hall et al., J. Neurochem. 44, 1685 (1985) which utilizes CHO cells stably transfected with human 5-HT1A receptors.

For the next data set, the target named is T3, serotonin transporter (Rattus norvegicus, UniProt P31652).
T3 construct: displace ^3H-paroxetine from male rat frontal cortical membranes; from tissue; host or cells: male rat frontal cortex membranes
Nature of the data set: 3H-paroxetine displacement from rat frontal cortical membranes (serotonin transporter affinity). Format: binding.

[2] abbreviates: displacement of [3H] 8-OHDPAT, CHO cells stably transfected with human 5-HT1A receptors, read-out: 5-HT1A Receptor Affinity KI.
Where [3] appears, read: displacement of 3H-paroxetine, male rat frontal cortical membranes, read-out: 5-HT Transporter Affinity KI.

One may read the melting point as the temperature of the solid-liquid transition. For orientation: EC50 means the concentration giving half of the maximal effect. A word on the Emax: it is the size of the effect at its maximum, as opposed to the concentration needed. As a reminder, the Ki is the dissociation constant of the complex between target and ligand, obtained from inhibition or displacement.

Each structure is given as a SMILES string. Where a name gives a salt, the structure may show the parent alone. Read-outs that look alike come from different tables or passages of the source. A value given as a limit tells only on which side of the number the result lay.

T3 sequence (P31652 whole entry): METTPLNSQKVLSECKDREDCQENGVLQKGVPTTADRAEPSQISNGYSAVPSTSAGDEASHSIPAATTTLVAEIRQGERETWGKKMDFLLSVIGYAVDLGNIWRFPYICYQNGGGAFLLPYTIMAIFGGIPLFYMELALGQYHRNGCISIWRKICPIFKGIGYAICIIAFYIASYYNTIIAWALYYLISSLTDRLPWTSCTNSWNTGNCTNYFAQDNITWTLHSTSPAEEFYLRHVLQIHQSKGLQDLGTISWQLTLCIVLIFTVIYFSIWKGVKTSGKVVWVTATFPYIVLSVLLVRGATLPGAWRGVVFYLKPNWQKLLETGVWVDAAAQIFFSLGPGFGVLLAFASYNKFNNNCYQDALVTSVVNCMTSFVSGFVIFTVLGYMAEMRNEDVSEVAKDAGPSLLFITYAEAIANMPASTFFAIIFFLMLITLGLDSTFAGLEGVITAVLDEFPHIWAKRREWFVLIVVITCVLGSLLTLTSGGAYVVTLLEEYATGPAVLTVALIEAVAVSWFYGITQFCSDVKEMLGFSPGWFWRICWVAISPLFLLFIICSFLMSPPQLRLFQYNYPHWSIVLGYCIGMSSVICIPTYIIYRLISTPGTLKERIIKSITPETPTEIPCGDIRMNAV

Compound `Fc1ccc2[nH]c(CC3CCN(CC4CCc5ccccc5O4)CC3)cc2c1` (stereo not shown) (as salt: oxalate) (hydrate or solvate) [Example 1, 2-{[1-(3,4-Dihydro-2H-chromen-2-ylmethyl)-4-piperidinyl]methyl}-5-fluoro-1H-indole] yielded a melting point of 187 to 190 °C.

With `COc1cccc2c1OC(CN1CC=C(c3c[nH]c4ccccc34)CC1)C=C2` (stereo not shown) [Example 9, 3-(1-{[8-Methoxy-2H-chromen-2-yl]methyl}-1,2,3,6-tetrahydro-4-pyridinyl)-1H-indole], the melting point is 198 to 200 °C (dec.). Besides, in data set [1], the EC50 was found to be 0.208 µM and the Emax was 67%. For the same compound, on human 5-HT1A receptors, the Ki was found to be 0.0965 µM. The affinity on serotonin transporter corresponds to a Ki of 0.0095 µM.

Take `COc1cccc2c1OC(CN1CC=C(c3c[nH]c4ccc(F)cc34)CC1)C=C2` (stereo not shown) [Example 8, 5-Fluoro-3-(1-{[8-methoxy-2H-chromen-2-yl]methyl}-1,2,3,6-tetrahydro-4-pyridinyl)-1H-indole]: the melting point is 189 to 191 °C (dec.). Also, in data set [1], the EC50 is 1.71 µM and the Emax is 60%. Besides, the Ki at human 5-HT1A receptors (setting [2]) came to 0.143 µM. The affinity at serotonin transporter, expressed as Ki, was 0.02 µM.

For the compound `COc1cccc2c1OC(CN1CC=C(c3c[nH]c4cc(F)ccc34)CC1)CC2` (stereo not shown) [Example 7, 6-Fluoro-3-(1-{[8-methoxy-3,4-dihydro-2H-chromen-2-yl]methyl}-1,2,3,6-tetrahydro-4-pyridinyl)-1H-indole], the melting point is > 170 °C (dec.). For the same compound, in data set [1], the EC50 is 0.854 µM and the Emax is 64%. Moreover, the Ki at human 5-HT1A receptors amounted to 0.045 µM. Also, the affinity at serotonin transporter corresponds to a Ki of 0.0085 µM.

For `COc1cccc2c1OC(CN1CC=C(c3c[nH]c4ccc(F)cc34)CC1)CC2` (stereo not shown) [Example 4, 5-Fluoro-3-(1-{[8-methoxy-3,4-dihydro-2H-chromen-2-yl]methyl}-1,2,3,6-tetrahydro-4-pyridinyl)-1H-indole], the melting point was 177 to 180 °C (dec.). Further, in data set [1], the EC50 was found to be 0.283 µM and the Emax was 92%. The compound further yielded a Ki on human 5-HT1A receptors of 0.0344 µM. In addition, the Ki on serotonin transporter was 0.0095 µM.

For `Fc1ccc2[nH]c(CC3CCN(CC4CCc5ccccc5O4)CC3)cc2c1` (stereo not shown) [Example 1, 2-{[1-(3,4-Dihydro-2H-chromen-2-ylmethyl)-4-piperidinyl]methyl}-5-fluoro-1H-indole], the results for the Ki on human 5-HT1A receptors (setting [2]) and at serotonin transporter (setting [3]) were 0.265 µM and 0.00013 µM, respectively.

Turning to `COc1cccc2c1OC(CN1CC=C(c3c[nH]c4ccccc34)CC1)CC2` (stereo not shown) [Example 5, (3-(1-{8-Methoxy-3,4-dihydro-2H-chromen-2-yl]methyl}-1,2,3,6-tetrahydro-4-pyridinyl)-1H-indole], the concentration for a half-maximal effect (EC50) in data set [1] turned out to be 0.189 µM. The “5-HT1A Function (Emax)” value in data set [1] (maximum stimulatory effect, 35S-GTPγS binding, cloned human 5-HT1A receptors, value in parentheses) was determined as 79.0. The Ki on human 5-HT1A receptors (setting [2]) amounted to 0.039 µM; at serotonin transporter (setting [3]) it was 0.01 µM.

`Fc1ccc2c(C3=CCN(CC4CCc5ccccc5O4)CC3)c[nH]c2c1` (stereo not shown) [Example 6, 3-[1-(3,4-Dihydro-2H-chromen-2-ylmethyl)-1 2,3,6-tetrahydro-4-pyridinyl]-6-fluoro-1H-indole] displayed a melting point of 160 to 161 °C. Also, in data set [1], the EC50 came to 2.48 µM and the Emax is 100%. For the same compound, affinity on serotonin transporter was put at a Ki of 0.00034 µM.

On to `C1=C(c2c[nH]c3ccccc23)CCN(CC2CCc3ccccc3O2)C1` (stereo not shown) [Example 2, 3-[1-(3,4-Dihydro-2H-chromen-2-ylmethyl)-1,2,3,6-tetrahydro-4-pyridinyl]-1H-indole], for which the melting point lay in the range of 171 to 173 °C. Moreover, the Emax in data set [1] turned out to be 50%. For the same compound, the Ki on human 5-HT1A receptors (setting [2]) is 0.281 µM. This compound returned a Ki on serotonin transporter of 0.00118 µM.

On to `Fc1ccc2[nH]cc(C3=CCN(CC4CCc5ccccc5O4)CC3)c2c1` (stereo not shown) [Example 3, 3-[1-(3,4-Dihydro-2H-chromen-2-ylmethyl)-1,2,3,6-tetrahydro-4-pyridinyl]-5-fluoro-1H-indole], for which the melting point is 172 to 175 °C. Moreover, in data set [1], the EC50 was found to be 0.398 µM and the Emax is 83%. On human 5-HT1A receptors (setting [2]), the Ki is 0.299 µM. Further, the affinity at serotonin transporter, expressed as Ki, was 0.00484 µM.
